{
  "source": "patent US20230000816A1",
  "about": "“SODIUM-GLUCOSE LINKED TRANSPORTER INHIBITORS FOR THE MANAGEMENT OF CHRONIC KIDNEY DISEASE, HYPERTENSION, AND HEART FAILURE IN COMPANION ANIMALS” (INCREVET, INC., priority 2019, published 2023)",
  "key": {"Sprague-Dawley rats": {"system": "Sprague-Dawley rats", "test": "PPAR-γ agonist (pioglitazone)-mediated fluid retention / plasma expansion model, 7 days, drugs in drinking water", "format": "in vivo, rat", "source_text": "It has been recognized in human clinical practice that an undesirable side effect of PPAR-γ agonists of the thiazolidinedione class is fluid retention and edema, which limits their use in patients with congestive heart failure. The mechanism of action of the thiazolidinediones is believed to be through stimulation of expression of the epithelial sodium channel (ENaC) in the kidney, resulting in an increased uptake of sodium ions from the distal tubule. Sodium retention and the associated expansion of extracellular fluid volume are characteristic features of congestive heart failure in multiple species. […] The sodium channel blocker amiloride was delivered in drinking water to a third group of rats as a comparator. Plasma expansion was measured by hematocrit. […] Food weight was recorded to measure consumption over the course of the experiment. […] Full bottles were pre-weighed and the weights recorded to allow consumption to be measured over the course of the experiment. On days 1 and 7, rats were warmed using a heating pad and lightly anesthetized using isoflurane. Using a sterile scalpel blade, a small tail nick was made on the distal one third of the tail. Blood was collected in a heparinized microcapillary tube sealed with putty at one end and stored on ice until centrifugation (5000 rpm, 5 min). Plasma volume was determined using a microhematocrit capillary tube reader card. On day 7, rats, food and water bottles were again weighed and recorded and hematocrits were determined using blood collected by a tail nick."}, "[1]": {"system": "human SGLT2 compared to human SGLT1", "settings": "compared with other SGLT inhibitors; cited from earlier work"}, "[2]": {"system": "dogs with stage B heart failure", "settings": "cited from earlier work"}, "[3]": {"system": "dogs with stage C heart failure", "settings": "cited from earlier work; for median survival: dogs with stage C heart failure, composite primary endpoint"}, "[4]": {"system": "client-owned cats with heart disease", "settings": "151 client-owned cats with heart disease; cited from earlier work"}, "[5]": {"system": "client-owned dogs with CKD", "settings": "cited from earlier work"}, "cats with CKD": {"system": "cats with CKD", "settings": "cited from earlier work; for reduction in urinary protein to creatinine ratio: cats, 7, 30, 60, 90, 120 and 180 days"}, "[6]": {"system": "diabetic subjects with stage A3 albuminuria", "settings": "humans, median 2.62 years; cited from earlier work"}, "[7]": {"settings": "rats, day 1 to day 7, mean ± SEM"}, "[8]": {"settings": "rats, pioglitazone diet, mean ± SEM"}, "[9]": {"settings": "rats, relative to day 1, mean ± SEM"}},
  "data": [
    {"smiles": "N=C(N)NC(=O)c1nc(Cl)c(N)nc1N", "note": "[Amiloride, reference compound]", "values": [
      {"measurement": "Plasma volume, Day 7", "setting": "Sprague-Dawley rats; rats after 7 days pioglitazone diet, group mean ± SEM", "result": "56.6 ± 0.4 % of blood volume"},
      {"measurement": "Plasma volume, Day 1", "setting": "Sprague-Dawley rats; rats on 0.03% pioglitazone diet, by hematocrit, group mean ± SEM", "result": "52.7 ± 0.9 % of blood volume"},
      {"measurement": "Effect on pioglitazone-mediated plasma expansion (conclusion)", "setting": "Sprague-Dawley rats; rats, 7 days", "result": "markedly less effective than bexagliflozin"},
      {"measurement": "Body Weight (%), Δ (percent mass gain)", "setting": "Sprague-Dawley rats; [7]", "result": "10.8 ± 0.7", "unit": "%"},
      {"measurement": "Body Weight (g), Δ", "setting": "Sprague-Dawley rats; [7]", "result": "40.0 ± 2.8", "unit": "g"},
      {"measurement": "Plasma volume, Δ (day 1 to day 7)", "setting": "Sprague-Dawley rats; rats, pioglitazone diet, group mean ± SEM", "result": "3.9 ± 0.7 % of blood volume"},
      {"measurement": "Body Weight (g), Day 1", "setting": "Sprague-Dawley rats; [8]", "result": "370.0 ± 6.0", "unit": "g"},
      {"measurement": "Body Weight (g), Day 7", "setting": "Sprague-Dawley rats; [8]", "result": "410.0 ± 7.7", "unit": "g"},
      {"measurement": "Body Weight (%), Day 1", "setting": "Sprague-Dawley rats; [9]", "result": "100 ± 0", "unit": "%"},
      {"measurement": "Body Weight (%), Day 7", "setting": "Sprague-Dawley rats; [9]", "result": "110.8 ± 0.7", "unit": "%"}
    ]},
    {"smiles": "Cc1cc(OCCCNCC(C)(C)C(N)=O)ccc1Cc1c(O[C@@H]2O[C@H](CO)[C@@H](O)[C@H](O)[C@H]2O)n[nH]c1C(C)C", "note": "[mizagliflozin]", "values": [
      {"measurement": "selectivity for human SGLT2 compared to human SGLT1 (in words)", "setting": "[1]", "result": "more active against SGLT1 than SGLT2"}
    ]},
    {"smiles": "CCOc1ccc(Cc2cc([C@@H]3O[C@H](SC)[C@@H](O)[C@H](O)[C@H]3O)ccc2Cl)cc1", "note": "[sotagliflozin]", "values": [
      {"measurement": "selectivity for human SGLT2 compared to human SGLT1 (in words)", "setting": "[1]", "result": "lower selectivity"}
    ]},
    {"smiles": "COc1ccc(-c2nc3ccc(C4=NNC(=O)CC4C)cc3[nH]2)cc1", "note": "(stereo not shown) [pimobendan]", "values": [
      {"measurement": "median time to the primary endpoint", "setting": "[2]; dogs with stage B heart failure, onset of CHF, cardiac-related death, or euthanasia, 95% CI: 856-NA", "result": 1228, "unit": "days"},
      {"measurement": "hazard ratio", "setting": "[2]; pimobendan vs placebo, 95% CI: 0.47-0.87", "result": 0.64},
      {"measurement": "median survival", "setting": "[3]", "result": 267, "unit": "days"},
      {"measurement": "hazard ratio", "setting": "[3]; pimobendan vs benazepril, 95% CI 0.516 to 0.916, p=0.0099", "result": 0.688}
    ]},
    {"smiles": "CCOC(=O)[C@H](CCc1ccccc1)N[C@H]1CCc2ccccc2N(CC(=O)O)C1=O", "note": "[benazepril]", "values": [
      {"measurement": "primary endpoint of treatment failure", "setting": "[4]", "result": "no benefit"},
      {"measurement": "difference in renal survival time vs placebo", "setting": "[5]; 49 client-owned dogs", "result": "significance was not realized"},
      {"measurement": "proteinuria (urinary protein to creatinine ratio)", "setting": "[5]; dogs, p=0.0032", "result": "significantly improved"},
      {"measurement": "reduction in urinary protein to creatinine ratio", "setting": "cats with CKD", "result": "not significant"},
      {"measurement": "median survival", "setting": "[3]", "result": 140, "unit": "days"}
    ]},
    {"smiles": "CCc1ccc([C@@H]2O[C@H](CO)[C@@H](O)[C@H](O)[C@H]2O)cc1Cc1ccc2c(c1)OCCO2", "note": "[licogliflozin]", "values": [
      {"measurement": "selectivity for human SGLT2 compared to human SGLT1 (in words)", "setting": "[1]", "result": "lower selectivity"}
    ]},
    {"smiles": "CCCc1nc2c(C)cc(-c3nc4ccccc4n3C)cc2n1Cc1ccc(-c2ccccc2C(=O)O)cc1", "note": "[telmisartan]", "values": [
      {"measurement": "comparison with benazepril", "setting": "cats with CKD; cats with CKD", "result": "noninferior to benazepril"},
      {"measurement": "reduction in urinary protein to creatinine ratio", "setting": "cats with CKD", "result": "significant at all time points"}
    ]},
    {"smiles": "Cc1ccc([C@@H]2O[C@H](CO)[C@@H](O)[C@H](O)[C@H]2O)cc1Cc1ccc(-c2ccc(F)cc2)s1", "note": "[canagliflozin]", "values": [
      {"measurement": "risk of composite of end-stage kidney disease, doubling of serum creatinine, or renal or cardiovascular death, lower than placebo", "setting": "[6]", "result": 30, "unit": "%"}
    ]}
  ]
}
